System: CT26 challenge tumors
Assay: Anti-tumor vaccination assay (whole-cell vaccine, live CT26 challenge)
Type: in vivo, Balb/c mice
Settings: challenge tumor at day 26; mice immunized with CT26 cells treated in vitro (plasma 300 mJ or Cisplatin 50 μM 24 hours)
Method: To ascertain whether the DAMP signals elicited by plasma could enhance immune responses against cancer, a vaccination assay was performed. […] Cells were prepared for inoculation and injected into the left flank as a whole-cell vaccine to allow an immune response to develop. One week after immunization, mice were challenged with live CT26 cancer cells on the opposite flank and tumor growth was monitored twice a week until day 26 when the study was terminated as a subset of the animals reached IACUC-approved endpoints (FIG. 8A). CT26 cells treated with media only or Cisplatin (50 μM for 24 hours), a non-ICD inducer, [60] were used as controls.
Cisplatin-vaccine was prepared from cells incubated for 24 hours in Cisplatin media. Media-Vaccine was prepared from cells cultured in regular, complete media for 24 hours. Cisplatin- and media-vaccines were used as controls.
After a 24-hour incubation 3×10^6 cells in 100 μL of PBS were inoculated subcutaneously into the left flank of Balb/c mice. Seven days later, mice were challenged with 3×10^5 live CT26 cells subcutaneously injected into the right flank. Tumors were measured twice weekly with calipers and all mice were euthanized on […].

N.N.[Cl][Pt][Cl] [Cisplatin]
mean tumor volume: 1041.8±208.3 mm^3
